Data: patent US20090202481A1, “Composition for Sustained Release Delivery of Proteins or Peptides” (priority 2008, published 2009)

How the values were obtained:
Assay type in all cases: physicochemical
[1] = Physical stability (phase separation, top/bottom ratio) of SAIB/NMP formulations standing at room temperature
Procedure: (§1) Octreotide acetate (OCT-Ac) and octreotide conjugate (PAL-PEG-BA-OCT) powders were dissolved in NMP. Then the solutions containing various forms of octreotide were thoroughly mixed with SAIB solution in NMP (90% w/w).
(§2) The formulations as prepared above were allowed to stand at room temperature (˜22° C.). At predefined time points, the appearance of the formulations was recorded and an aliquot of each of both the supernatant and bottom composition was collected and analyzed by HPLC for octreotide content. The physical stability of the formulations was determined by direct observation or using the ratio of the content of the octreotide in the supernatant to that in the bottom composition. If the ratio equals to 1.0, the formulation is uniform and stable.

[2] = Purity of the octreotide in formulations at room temperature over time (HPLC); conditions: SAIB/NMP formulation
Procedure: as §1, §2

[3] = In vitro release of octreotide from SAIB/NMP formulations into PBS 7.4 at 37° C.; conditions: PBS 7.4, 37° C., SAIB/NMP formulation
Procedure: Formulations were prepared by mixing octreotide acetate (OCT-Ac) and octreotide conjugate (PAL-PEG-BA-OCT) powders with SAIB solution in NMP (90% w/w).
Due to the physical instability of the formulation containing OCT-Ac, the in vitro release was investigated immediately after the preparation of the formulations. An aliquot of the suspension was used for the in vitro release. About 0.1 mL of each formulation containing octreotide was injected into 3 mL of releasing buffer (PBS 7.4, containing 0.1% sodium azide) in a 4 mL glass vial. The vials were incubated at 37° C. and sampled at various time points. At each time point, 2 mL of release medium was removed and 2 mL of fresh release medium added. The collected samples were analyzed for peptide concentration and integrity by HPLC using an YMC-Pack ODS-120A column. Triplicate samples were used for each formulation.

## C[C@@H](O)[C@@H]1NC(=O)[C@H](CCCCN)NC(=O)[C@@H](Cc2c[nH]c3ccccc23)NC(=O)[C@H](Cc2ccccc2)NC(=O)[C@@H](NC(=O)[C@H](N)Cc2ccccc2)CSSC[C@@H](C(=O)N[C@H](CO)[C@@H](C)O)NC1=O [OCT-Ac, Octreotide acetate]
[1]; on mixing, about 6% octreotide content
  Appearance when combined with SAIB/NMP solution: phase separation occurred immediately
[1]; room temperature, SAIB/NMP formulation
  NMP in the bottom phase: slightly more NMP
[1]; room temperature, after 5 days
  OCT ratio top/bottom: less than 0.03
[1]; room temperature, after two days
  Concentration of the octreotide in the bottom phase relative to the upper phase: about 20 folds
[1]; stood at room temperature for 24 h
  Phase separation of formulation (FIG. 1): apparent phase separation occurred
[2]; after 7 days
  Octreotide degraded in the bottom phase: more than 20%
  Octreotide degraded in the supernatant: More than half
[2]; after two hours
  Octreotide degraded or reacted: about 4%
[3]
  Initial burst release (FIG. 2): very high initial burst release
[3]; after two weeks
  Octreotide released: more than 90%
[3]; within 24 hours
  Octreotide released: More than 60%
